Assay results published in patent publication US10920506B2, “Methods for wellbore milling operations” (STEP ENERGY SERVICES LTD., priority 2018, dated 2021).

Assays:
[1] = IBDU solubility without accelerator, 2 bag STEPvert LT diversion pill in water or brine; type: physicochemical; details: 45 kg/m3 loading of IBDU in water or brine
Text: Operations: • When milling in an underpressured well (i.e. hydrostatic pressure is greater than bottom hole pressure), or when there are indications of possible or actual lost circulation. • Add two bags of 100 Mesh IBDU such as STEPvert LT™ available from STEP Energy Services Ltd. to fluid in a displacement tank (45 kg/m^3), engage agitation paddle to maximum RPM (if paddle is not spinning fast enough to mix fluid, increase paddle speed) to ensure mixing. Continue mixing or, as noted above, displace while IBDU is added. • To avoid the IBDU settling out prior to arriving downhole, adjust the fluid if necessary to increase the carrying capacity of the fluid such that solid IBDU is able to remain suspended for the period of time it takes to get downhole. This may be achieved by pump rate and/or addition of viscosifiers. Thus, to better suspend solids: • A gelling agent is added: For example liquid gel hydroxyethyl cellulose 5 L/m^3 (2 kg/m^3 if dry gel) is added to the displacement tank with a target hydration time of 3 minutes; and/or • Slowly pour IBDU into the mixing tub while displacing to ensure no product settles out. • Add a degradation accelerator if needed. Consider Table 1 where IBDU solubility is summarized with and without a citric acid accelerator based on 45 kg/m3 loading of IBDU in water or brine: […]

[2] = IBDU dissolution time with citric acid accelerator (Accelerator HT); type: physicochemical; details: 2 bag pill, 45 kg/m3 IBDU in water or brine
Text: Operations: • When milling in an underpressured well (i.e. hydrostatic pressure is greater than bottom hole pressure), or when there are indications of possible or actual lost circulation. • Add two bags of 100 Mesh IBDU such as STEPvert LT™ available from STEP Energy Services Ltd. to fluid in a displacement tank (45 kg/m^3), engage agitation paddle to maximum RPM (if paddle is not spinning fast enough to mix fluid, increase paddle speed) to ensure mixing. Continue mixing or, as noted above, displace while IBDU is added. • To avoid the IBDU settling out prior to arriving downhole, adjust the fluid if necessary to increase the carrying capacity of the fluid such that solid IBDU is able to remain suspended for the period of time it takes to get downhole. This may be achieved by pump rate and/or addition of viscosifiers. Thus, to better suspend solids: • A gelling agent is added: For example liquid gel hydroxyethyl cellulose 5 L/m^3 (2 kg/m^3 if dry gel) is added to the displacement tank with a target hydration time of 3 minutes; and/or • Slowly pour IBDU into the mixing tub while displacing to ensure no product settles out. • Add a degradation accelerator if needed. Consider Table 1 where IBDU solubility is summarized with and without a citric acid accelerator based on 45 kg/m3 loading of IBDU in water or brine:
• Generally if the formation temperature is less than 90° C., use a degradation accelerator, such as a resin coated citric acid such as Accelerator HT™ available from STEP Energy Services Ltd. The citric acid reduces pH in order to reduce degradation time of the IBDU. The resin coating ensures that the citric acid substantially will not begin to act until it reaches formation temperature. The resin breaks down to expose the acid and the acid then reduces pH and expedites degradation. • The pill of the IBDU, possibly including degradation accelerator, is launched. If a twin pump is employed, pump only through one fluid end and isolate the idle side. This ensures diverter only enters one side of plumbing. This is an operational efficiency, where only one fluid end is exposed to diverter in case it collects in large quantities and holds a valve and seat open. By always keeping one side “clean” (no solids) operational risks are mitigated. • Maintain a minimum rate of at least about 0.2 m^3/min or possibly about 0.4 m^3/min through the single fluid end (higher rate is better to aid in carrying solids). If fluid is comingled with gas such as nitrogen, lower rates may be used. […] This ensures the fluid end has been properly flushed. • Track volume from when pill enters the coil to when it is expected to reach open formation. Record the time that each pill reaches formation/exits coil BHA on treatment report (include surface iron in volume calculation). In case a large pressure event occurs when the pill exits the downhole pump, only one pill is to be inside coil at any given time.

[3] = 50° C., Accelerator HT Loading 5 kg
[4] = 60° C., Accelerator HT Loading 4 kg
[5] = 70° C., Accelerator HT Loading 2 kg
[6] = 80° C., Accelerator HT Loading 1 kg
[7] = 90° C., Accelerator HT Loading 0 kg

No Accelerator Solubility, % 24 Hours ([1]; 50° C.): 14%
No Accelerator Solubility, % 48 Hours ([1]; 50° C.): 20%
No Accelerator Solubility, % 96 Hours ([1]; 50° C.): 32%
No Accelerator Solubility, % 24 Hours ([1]; 60° C.): 18%
No Accelerator Solubility, % 48 Hours ([1]; 60° C.): 24%
No Accelerator Solubility, % 96 Hours ([1]; 60° C.): 35%
No Accelerator Solubility, % 24 Hours ([1]; 70° C.): 32%
No Accelerator Solubility, % 48 Hours ([1]; 70° C.): 35%
No Accelerator Solubility, % 96 Hours ([1]; 70° C.): 51%
No Accelerator Solubility, % 24 Hours ([1]; 80° C.): 51%
No Accelerator Solubility, % 48 Hours ([1]; 80° C.): 96%
No Accelerator Solubility, % 96 Hours ([1]; 80° C.): 98%
No Accelerator Solubility, % 24 Hours ([1]; 90° C.): 89%
No Accelerator Solubility, % 48 Hours ([1]; 90° C.): 96%
No Accelerator Solubility, % 96 Hours ([1]; 90° C.): 98%
50% Dissolution Time [2, 3]: 1.5 days
100% Dissolution Time [2, 3]: 5 days
50% Dissolution Time [2, 4]: 1 days
100% Dissolution Time [2, 4]: 3 days
50% Dissolution Time [2, 5]: 1 days
100% Dissolution Time [2, 5]: 2 days
50% Dissolution Time [2, 6]: 1 days
100% Dissolution Time [2, 6]: 2 days
50% Dissolution Time [2, 7]: 0.33 days
100% Dissolution Time [2, 7]: 1 days
Compound: CC(C)C(NC(N)=O)NC(N)=O [STEPvert LT, isobutylidene diurea]
